Results taken from patent publication US11471395B2, “Method for preventing aging with bioactive compound” (TCI CO., LTD., priority 2020, dated 2022).

Columns and labels:
Format in all cases: cell-based
[1] = test system: Atg8 gene; assay: Anti-aging gene expression test in human fibroblasts (qPCR), Atg8 gene; settings: 25 μg synthesized peptide per 1 ml medium, human fibroblasts (CCD-966SK), 24 h, 37° C.
Description: (§1) In order to confirm the effect of each of the amino acid sequences on gene expression in cells, human fibroblasts (CCD-966SK) and individual synthesized peptides were co-cultured, and then, gene expression in the cells was analyzed. 6 types of synthesized peptides were respectively subjected to cell experiments. In addition, the amino acid sequences of 6 types of synthesized peptides were respectively SEQ ID NO: 1, SEQ ID NO: 2, SEQ ID NO: 3, SEQ ID NO: 4, SEQ ID NO: 5 and SEQ ID NO: 6. The sequence numbers SEQ ID NO: 1 to SEQ ID NO: 6 will be referred to as groups. […]
(§2) For peptide experiment groups (corresponding to Experiment group A to Experiment group F), according to a proportion of 25 μg of synthesized peptide per 1 ml of cell culture medium, the human fibroblasts were cultured for 24 h at 37° C. […] In addition, the primers firstly reacted by a green fluorescent dye of SYBR green dye (Applied Biosystem), and quantification of gene expression was performed by a 2-ΔΔCt method. It should be noted that the gene expression in the drawings was shown in relative fold, ratio or percentage, where standard deviations were calculated by an STDEV formula of Excel software, and statistically significant differences were analyzed by one-tailed student t-test in the Excel software. […]

[2] = test system: CCT2 gene; assay: Anti-aging gene expression test in human fibroblasts (qPCR), CCT2 gene; settings: 25 μg synthesized peptide per 1 ml medium, human fibroblasts (CCD-966SK), 24 h, 37° C.
Description: as §1, §2

[3] = test system: CCT5 gene; assay: Anti-aging gene expression test in human fibroblasts (qPCR), CCT5 gene; settings: 25 μg synthesized peptide per 1 ml medium, human fibroblasts (CCD-966SK), 24 h, 37° C.
Description: as §1, §2

[4] = test system: CCT6A gene; assay: Anti-aging gene expression test in human fibroblasts (qPCR), CCT6A gene; settings: 25 μg synthesized peptide per 1 ml medium, human fibroblasts (CCD-966SK), 24 h, 37° C.
Description: as §1, §2

[5] = test system: CCT7 gene; assay: Anti-aging gene expression test in human fibroblasts (qPCR), CCT7 gene; settings: 25 μg synthesized peptide per 1 ml medium, human fibroblasts (CCD-966SK), 24 h, 37° C.
Description: as §1, §2

[6] = test system: CCT8 gene; assay: Anti-aging gene expression test in human fibroblasts (qPCR), CCT8 gene; settings: 25 μg synthesized peptide per 1 ml medium, human fibroblasts (CCD-966SK), 24 h, 37° C.
Description: as §1, §2

[7] = test system: Pink1 gene; assay: Anti-aging gene expression test in human fibroblasts (qPCR), Pink1 gene; settings: 25 μg synthesized peptide per 1 ml medium, human fibroblasts (CCD-966SK), 24 h, 37° C.
Description: as §1, §2

[8] = test system: SIRT1 gene; assay: Anti-aging gene expression test in human fibroblasts (qPCR), SIRT1 gene; settings: 25 μg synthesized peptide per 1 ml medium, human fibroblasts (CCD-966SK), 24 h, 37° C.
Description: as §1, §2

[9] = test system: Ubl-5 gene; assay: Anti-aging gene expression test in human fibroblasts (qPCR), Ubl-5 gene; settings: 25 μg synthesized peptide per 1 ml medium, human fibroblasts (CCD-966SK), 24 h, 37° C.
Description: as §1, §2

[10] = test system: mitochondria activities of human fibroblasts (CCD-966SK); assay: Mitochondria activity test (JC-1 membrane potential, flow cytometry); settings: 24 h, 37° C.
Description: Then, in order to confirm the effect of each of the amino acid sequences on mitochondria activities, human fibroblasts (CCD-966SK) and the individual peptides were co-cultured, and then, the mitochondrion activities was analyzed. 6 types of synthesized peptides were respectively subjected to mitochondria activity tests. In addition, the amino acid sequences of 6 types of synthesized peptides were respectively SEQ ID NO: 1, SEQ ID NO: 2, SEQ ID NO: 3, SEQ ID NO: 4, SEQ ID NO: 5 and SEQ ID NO: 6. The sequence numbers SEQ ID NO: 1 to SEQ ID NO: 6 will be referred to as groups.
For mitochondria activity tests, after human fibroblasts and samples to be tested (such as peptides or compositions) were co-cultured, then, co-cultured cells were treated by a mitochondria membrane potential detection kit (containing a JC-1 mitochondria coloring agent, purchased from BD). Mitochondria activity test groups were divided into 7 groups.
Firstly, each of the groups (Experiment group H to Experiment group M, and Control group) was co-cultured with 1×10^5 human fibroblasts in a cell culture plate containing 2 ml of cell culture medium (X-VIVO™ 10). Then, the samples to be tested for each of the group were added into corresponding culture plates according to Table 6, and were co-cultured with the human fibroblasts at 37° C. for 24 h. Control group was co-cultured for 24 h by a peptide-free culture medium under the same conditions.
Before the mitochondria activity test was performed, a JC-1 mitochondria coloring agent was prepared. Firstly, a 10× JC-1 buffer solution was preheated at 37° C., was then diluted into a 1× JC-1 buffer solution by a 1× phosphate buffer solution (PBS, purchased from Gibco), and was maintained at 37° C. after being uniformly mixed. 130 μl of dimethyl sulfoxide (DMSO) was added into a lyophilized JC-1 reagent to prepare a JC-1 stock solution. Then, the JC-1 stock solution was diluted 1000 folds by the 1× JC-1 buffer solution to prepare a JC-1 work solution.
After co-culture for 24 h, the cell culture medium in the culture plate was removed. The co-cultured cells were rinsed twice by PBS so as to remove the residual cell culture medium. The cells were trypsinized from the culture plate, and were collected into a 1.5 ml microcentrifuge tube to be centrifuged for 5 min at 400×g so as to form a primary supernatant and a primary cell precipitate. After the primary supernatant was removed, the primary cell precipitate was resuspended by PBS to form a primary cell solution. The primary cell solution was transferred into a 1.5 ml centrifuge tube to be centrifuged for 5 min at 400×g again so as to separate the primary cell solution into a secondary supernatant and a secondary cell precipitate. Then, after the secondary supernatant was removed, 100 μl of JC-1 work solution was added to the secondary cell precipitate and vortexed to form a secondary cell solution. The secondary cell solution was cultured in dark at a room temperature for 15 min.
After cultured dark, the secondary cell solution was centrifuged for 5 min at 400×g. […] Standard deviations of the results were calculated by an STDEV formula of Excel software, and statistically significant differences were analyzed by one-tailed student t-test in the Excel software. […]

Sequence	fold of upregulation of Atg8 gene expression vs Control group [1]	fold of upregulation of CCT2 gene expression vs Control group [2]	fold of upregulation of CCT5 gene expression vs Control group [3]	fold of upregulation of CCT6A gene expression vs Control group [4]	fold of upregulation of CCT7 gene expression vs Control group [5]	fold of upregulation of CCT8 gene expression vs Control group [6]	fold of upregulation of Pink1 gene expression vs Control group [7]	fold of upregulation of SIRT1 gene expression vs Control group [8]	fold of upregulation of Ubl-5 gene expression vs Control group [9]	improvement of mitochondria activities as compared with Control group ([10]; 10 μg peptide in 2 ml medium)	improvement of mitochondria activities as compared with Control group ([10]; 25 μg peptide in 2 ml medium)
DKPLIPEGP (listed as Pangasius bocourti) [SEQ ID NO: 5, synthesized peptide of Basa skin; Titin, tandem duplicate 2]	5.13 folds	5.86 folds	6.03 folds	5.47 folds	7.92 folds	6.88 folds	5.85 folds	6.62 folds	5.24 folds	26.7%	
GPLGPIGPPGLP (listed as Pangasius bocourti) [SEQ ID NO: 6, synthesized peptide of Basa skin; Procollagen, type V, alpha I]	4.28 folds	5.71 folds	6.76 folds	5.28 folds	7.89 folds	6.43 folds	6.42 folds	6.52 folds	5.16 folds		68.9%
NPGPHGQPGPPGP (listed as Pangasius bocourti) [SEQ ID NO: 4, synthesized peptide of Basa skin; Persistent plexus]										32.9%	
PGAPGSSGPKG (listed as Pangasius bocourti) [SEQ ID NO: 2, synthesized peptide of Basa skin; collagen, type XIV]										32.7%	
VAEGAQGNIGPA (listed as Pangasius bocourti) [SEQ ID NO: 3, synthesized peptide of Basa skin; Kinesin family member 21B]										25.6%	
